How the values were obtained:
LZ-MALT1 = biological target: T1, LZ-MALT1 (Homo sapiens, UniProt Q9UDY8); assay: Dose-effect and time-course of MALT1 inhibition (pre-incubation, then Ac-LRSR-AMC); assay type: biochemical; details: pre-incubation 5 to 80 minutes
T1 construct: His tag (N); made in house; host or cells: E. coli
Procedure: The reactions were monitored in a SpectraMax M5 plate reader (Molecular Devices, Sunnyvale, Calif. USA) with excitation/emission wavelength at 360/465 nm and 20 seconds intervals. Normalized percentage of inhibition was calculated with the following formula: (M(T2-T1)−N(T2-T1))/(P(T2-T1)−N(T2-T1))*100, where M(T2-T1) is the difference signal of compound at time point 200s and 0s, N(T2-T1) is the difference signal of negative control buffer only, P(T2-T1) is the difference signal of positive control Z-VRPR-FMK.

[1] = biological target: T2, LZ-MALT1 (MALT1 (340-789) fused with a leucine zipper dimerization motif) (Homo sapiens, UniProt Q9UDY8); assay: LZ-MALT1 fluorescence assay (Ac-LRSR-AMC cleavage), screening and concentration response; assay type: biochemical
T2 construct: His tag (N); made in house; host or cells: E. coli
Text: We reasoned that MALT1 small-molecule inhibitors might be useful chemical tools for studying MALT1 biology and treating MALT1 addicted tumors. However, full-length MALT1 and its paracaspase domain (amino acids 340-789) are naturally present in physiological solutions as a monomer, which has very low proteolytic activity. Caspases generally must homodimerize for maximal catalytic activity (Pop et al., 2006; Walker et al., 1994; Yin et al., 2006) and accordingly the recently reported structures of the paracaspase domain of MALT1 in complex with a peptide inhibitor are dimeric (Wiesmann et al., 2012; Yu et al., 2011). […]
Ac-LRSR-AMC was used as substrate and reactions were measured with excitation/emission wavelengths of 360/465 nm. […] The final percent inhibition was calculated with the formula: {[fluorescencetest compound(T2-T1)−fluorescenceneg ctrl(T2−T1)]/[fluorescencepos ctrl(T2−T1)−fluorescenceneg ctrl(T2−T1)]}×100. […]
The screening consisted of a 20 μl reaction in 384-well black plates (Greiner Bio One, Wemmel, Belgium, catalogue #784076) with 100 nM LZ-MALT1, 200 μM Ac-LRSR-AMC, and 12.5 μM test compound in buffer A (20 mM HEPES pH 7.5, 10 mM KCl, 1.5 mM MgCl2, 1 mM EDTA, 1 mM DTT, 0.01% Triton X-100). The reactions were measured with excitation/emission wavelengths of 360/465 nm using Envision Multilabel Reader (Perkin-Elmer, Waltham, Mass.). […]

[2] = test system: ABC-DLBCL MALT1 independent cell lines U2932 and HLY-1; assay: Growth inhibition, MALT1 independent ABC-DLBCL cell lines; assay type: cell-based, human; details: 50 μM, 48 hr
Procedure: (§1) Endogenous MALT1 activity was evaluated by Western blotting for A20, BCL10 and CYLD; and NF-κB activation, by phospho-IκB-α and total IκB-α. Dependence on MALT1 proteolytic activity for proliferation was tested by 50[…]μM Z-VRPR-FMK treatment for 48 hr. […] The U2932 and HLY1 ABC-DLBCL cell lines harbor mutations in TAK1 and A20, which activate NF-κB signaling downstream of MALT1.
(§2) Cell proliferation was determined by ATP quantification using a luminescent method (CellTiter-Glo, Promega, Madison, Wis.) and Trypan blue dye-exclusion (Sigma, St. Louis, Mo.). Cell viability in drug-treated cells was normalized to their respective controls (fractional viability) and results are given as 1-fractional viability. […]
(§3) DLBCL cell lines were grown in exponential growth conditions during the 48 hr of treatment. Cell proliferation was determined by ATP quantification using a luminescent method (CellTiter-Glo, Promega, Madison, Wis.) and Trypan blue dye-exclusion (Sigma, St. Louis, Mo.). Luminescence was measured using the Synergy4 microplate reader (BioTek Instruments, Winooski, Vt.). Standard curves for each cell line were calculated by plotting the cell number (determined by the Trypan blue method) against their luminescence values and number of cells was calculated accordingly. […]

[3] = test system: GCB-DLBCL cell lines OCI-Ly7 and OCI-Ly1; assay: Growth inhibition, GCB-DLBCL cell lines; assay type: cell-based, human; details: 50 μM, 48 hr
Procedure: as §1, §2, §3

[4] = test system: MALT1 dependent ABC-DLBCL cells HBL-1, TMD8, OCI-Ly3 and OCI-Ly10; assay: Growth inhibition, MALT1 dependent cell lines; assay type: cell-based, human; details: 50 μM, 48 hr
Procedure: as §1, §2, §3

[5] = test system: MALT1^WT NF-κB activation; assay: NF-κB reporter assay in 293T cells, PMA/ionomycin, BCL10 and MALT1 WT; assay type: cell-based; details: pre-treatment
Text: Antigen receptor-mediated NF-κB signaling partly depends on MALT1 activity (Ruefli-Brasse et al., 2003; Ruland et al., 2003). […] First, 293T cells were transfected with the NF-κB reporter vector (NF-κB)5-luc2CP-pGL4 (harboring 5 copies of the NF-κB consensus response element and a destabilized Firefly luciferase) and TK-pRL control together with plasmids expressing BCL10 and either MALT1^WT or MALT1^C464A. […] HBL-1 was transfected with the reporter construct (NF-κB)5-luc2CP-pGL4 and TK-pRL control.
Reporter assays were performed in 293T cells seeded at a density of 2×10^5 cells per well of a 12-well dish. 100 ng of (NF-κB)5-Luc2CP-pGL4 and 10 ng of TK-Renilla internal control plasmid were cotransfected along with 25 ng of the indicated plasmids (MIGR1-MALT1^WT or MIGR1-MALT1^C464A and pcDNA4-Flag-Bcl10) using Lipofectamine 2000 (Invitrogen). Lysates were submitted to dual luciferase assays following manufacturer's protocol (Promega). In HBL-1, 5 μg of (NF-κB)5-Luc2CP-pGL4 and 50 ng of TK-Renilla internal control plasmid per 5×10^6 cells were cotransfected using nucleofection (Amaxa, Lonza, Basel, Switzerland). Forty-eight hours after transfection, cells were plated at a density of 5×10^4 cells per well of a 24-well plate and treated as indicated. Lysates were submitted to dual luciferase assays following manufacturer's protocol (Promega).

c-REL = c-REL flow cytometry of whole cells or isolated nuclei, HBL-1 cells; assay type: cell-based, human; details: 200 nM MI-2 or 50 μM Z-VRPR-FMK, 24 hr
Procedure: MALT1 mediates c-REL translocation to the nucleus following BCR stimulation (Ferch et al., 2007). […] This selectivity towards c-REL had also been previously shown in MALT1 knockout mice and after MALT1 cleavage inhibition by the MALT1 blocking peptide Z-VRPR-FMK (Ferch et al., 2009; Ferch et al., 2007; Hailfinger et al., 2011).
[…] was studied by flow cytometry. Cells were treated as indicated and total cells or isolated nuclei were prepared and stained for c-REL. Total cells were fixed and permeabilized using the Intrastain kit from Dako (Glostrup, Denmark). For nuclei extraction, cells were resuspended in cold nuclei extraction buffer (320 mM sucrose, 5 mM MgCl2, 10 mM HEPES, 1% Triton X-100 at pH 7.4), incubated for 10 min on ice and washed twice with nuclei wash buffer (320 mM sucrose, 5 mM MgCl2, 10 mM HEPES at pH 7.4, no Triton X-100). Nuclei yield and integrity were confirmed by microscopic examination with trypan blue staining. For labeling, nuclei wash buffer was supplemented with 1% BSA, 0.1% sodium azide and 1:100 c-REL antibody (Cell Signaling). Cells were washed then incubated with Alexa Fluor-488 conjugated secondary antibodies from Invitrogen. Cells were washed again and stained with DAPI followed by flow cytometry.

T1 sequence (Q9UDY8 with tags, fused parts or gaps limits assumed): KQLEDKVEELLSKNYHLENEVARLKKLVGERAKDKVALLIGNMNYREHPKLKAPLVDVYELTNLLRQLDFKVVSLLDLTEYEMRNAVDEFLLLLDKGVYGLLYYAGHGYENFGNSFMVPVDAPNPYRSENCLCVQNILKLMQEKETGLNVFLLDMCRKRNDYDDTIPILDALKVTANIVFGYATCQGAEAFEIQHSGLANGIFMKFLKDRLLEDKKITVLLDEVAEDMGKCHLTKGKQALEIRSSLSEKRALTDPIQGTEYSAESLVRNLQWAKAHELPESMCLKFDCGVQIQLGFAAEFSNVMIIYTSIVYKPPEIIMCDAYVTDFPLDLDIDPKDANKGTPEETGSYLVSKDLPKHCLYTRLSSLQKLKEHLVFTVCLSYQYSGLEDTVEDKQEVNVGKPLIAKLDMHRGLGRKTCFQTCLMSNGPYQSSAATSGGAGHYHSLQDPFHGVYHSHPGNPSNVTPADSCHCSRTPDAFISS
T2 sequence (Q9UDY8 with tags, fused parts or gaps limits assumed): as above

kind of inhibition (time dependence) (LZ-MALT1) | percent MALT1 inhibition reached (LZ-MALT1) [%] | biochemical IC50 (in words) [1] | Molecule | response of proliferation [2] | response of proliferation [3] | response of proliferation [4] | NF-κB induction by PMA/ionomycin stimulation [5] | nuclear c-REL (c-REL; isolated nuclei) | whole cell c-REL (c-REL; whole cells)
reversible inhibition | ~50 | lower IC50 | COCCOc1nc(-c2cccc(OC)c2)n(-c2ccc(NC(=O)c3cccc([N+](=O)[O-])c3)cc2)n1 [MI-2A2] |  |  |  |  |  | 
 |  |  | Z-VRPR-FMK [reference compound] | relatively little response | did not respond | inhibition of proliferation | significantly inhibited NF-κB induction | reduced nuclear c-REL | without affecting whole cell levels
